Test results published in patent US20080269161A1, “Compositions and Methods Relating to Mitochondrial Hyperpolarization in Neurological Disease” (priority 2005, published 2008).
“Also recorded” adds a separate entry of the source. Where a name gives a salt, the structure may show the parent alone.

What was measured:
[1] = system: HIV-1 isolates resistant to other protease inhibitors; conditions: read-out: ED50 dose for inhibiting viral replication; cited from earlier work
[2] = system: Tat-stimulated TNF release in monocytes; assay: Tat-stimulated TNF release by primary monocytes (ELISA); type: cell-based, human; conditions: Tat 100 nM, 4 h; CGS21680 1 μM; ATL313, ATL455 1-4 nM; hydrochloride
Procedure: Human primary monocytes were treated with Tat (100 nM) in the presence or absence of the A2AR agonist, CGS21680 (CGS; 1 μM) or the A2AR antagonist, ZM241385 (100 nM) for 4 h. TNF levels in culture supernatants were then quantitated by ELISA. Data represent mean+SEM of three replicates, from a single representative experiment
(§1) Primary monocytes were seeded in separate triplicate wells, and exposed independently to LPS (100 ng/ml), vehicle (NT) or Tat (100 nM) in the presence or absence of the A2AR agonist, CGS21680 (1 μM). After 4 h, cells were harvested. (A) TNF was measured in cell supernatants by ELISA Mean data values (±S.D.) are shown for the triplicate wells. (B) The corresponding cells from each well in panel A were lysed and subjected to qRTPCR analysis. Each cDNA sample was analyzed in quadruplicate. Assay results are presented as fold induction of gene expression, compared to untreated cells, after normalization to levels of GAPDH. Data represent mean±SD for each individual experimental replicate/well.
Human primary monocytes were treated with Tat (100 nM) in the presence or absence of the A2AR agonist, ATL313 (1-4 nM) or the A2AR antagonist, ATL455 (1-4 nM) for 4 h. TNF levels in culture supernatants were then quantitated by ELISA. […]
Human primary monocytes were treated with Tat (100 nM) in the presence or absence of the A2AR agonist, ATL313 (at the indicated doses) for 4 h. TNF levels in culture supernatants were then quantitated by ELISA. […]
(6) Primary monocytes. […] Results are compared for both populations, as well as purity (as assessed by immunophenotyping using CD14, CD68 and MHC class II).
The effect of an A2AR agonist on TNF release by primary human monocytes was also determined. Monocytes were stimulated with HIV-1 Tat, in the presence or absence of the A2AR agonist CGS21680 or the A2AR antagonist ZM251385 and TNF release was then measured in cell culture supernatants using an ELISA assay.
Quantitative real-time PCR analysis was used to measure TNF message levels in Tat-treated monocytes. […]

[3] = system: iNOS expression in human primary monocytes; assay: Tat-induced iNOS expression in primary monocytes; type: cell-based; conditions: co-treatment with Tat
Procedure: (§2) The effect of adenosine receptor activation on Tat-induced upregulation of iNOS expression and NO release was then determined. […] In contrast, incubation of cells with 1 μM R-PIA (an adenosine A1 receptor agonist) had no effect on Tat-induced iNOS expression or NO release (FIG. 11), implicating the A2A and A3 receptor subtypes in this anti-inflammatory effect. ZM241385 (an A2AR antagonist) or MRS 1220 (an A3R antagonist) could prevent the anti-inflammatory effects of CGS21680 or IB-MECA, respectively.

[4] = system: NO release by human primary monocytes; assay: Tat-induced nitric oxide release by primary monocytes (Griess reaction); type: cell-based; conditions: co-treatment with Tat, 8 h; R-PIA 1 μM
Procedure: Human primary monocytes were treated with Tat in the presence or absence of the indicated adenosine receptor agonists for 8 h, and nitric oxide levels in the culture medium of the cells were then quantitated using the Griess reaction (Active Motif). Data represent mean+SEM of three experiments.
as §2

[5] = system: TNF and IL1 mRNA in primary human monocytes; assay: qRTPCR of inflammatory gene expression in Tat-exposed monocytes; type: cell-based; conditions: Tat 100 nM, CGS21680 1 μM, 4 h
Procedure: as §1
Quantitative real-time PCR analysis was used to measure TNF message levels in Tat-treated monocytes. Primary human monocytes were prepared using CD14^+ immunomagnetic selection, and then exposed to LPS or to HIV-1 Tat for 4 hours, in the presence or absence of the A2AR agonist CGS21680. Culture supernatants were tested for TNF levels by ELISA assay (FIG. 13A), and RNA was extracted from cell pellets for quantitative reverse-transcription PCR (qRTPCR) analysis (FIG. 13B).

[6] = system: rat cerebellar granule neurons (CGNs); assay: Tat-induced apoptosis of cerebellar granule neurons (TUNEL); type: cell-based; conditions: Tat 500 nM, 48 h
Procedure: (§3) CGNs were exposed to HIV-1 Tat (Tat, 500 nM), or vehicle alone (NT), in the presence or absence of the A2A antagonist, ZM241385. After 48 h, cultures were analyzed for the percentage of apoptotic cells using the TUNEL assay. Data represent mean±SEM for one experiment that was performed in triplicate; data are representative of two independent experiments.
as §3, with “(No Tat),” for “(NT),”, “A2AR antagonists, ATL455 and ZM241385, or the A2AR agonists ATL313 and CGS21680.” for “A2A antagonist, ZM241385.”
(1) Primary rat cerebellar granule neurons (CGNs). CGNs represent a highly homogenous population of primary neurons which are susceptible to Tat and PAF-mediated cell killing and have been used in many of previous studies. CGN cells are isolated according to published procedures [Maggirwar, S. B., et al. 1999. J Neurochem 73:578-86] [Tong, N., et al. 2001. Eur J Neurosci 13:1913-22].
78(4): p. […] 22(6): p. 1102-6].
Primary rat cerebellar granule neurons (CGNs) were exposed to a neurotoxic concentration of HIV-1 Tat, in the presence or absence of an A2AR antagonist (ZM241385). […] It is important to note that CGNs express adenosine A2A receptors [Vacas, J., et al. 2003. Brain Res 992:272-280].
Primary cultures of rat cerebellar granule neurons (CGNs) were exposed to HIV-Tat ([…]) alone or together with increasing doses of the A2AR antagonist ATL-455 or A2A agonists ATL313 or CGS21680. Cells are treated with the test compounds for defined time intervals of up to 48 hours (1, 4, 8, 24, and 48 hours).

rat cortical neurons = type: cell-based
Procedure: Measuring production of intracellular ROS: Generation of ROS in response to Tat and PAF is assessed with the oxidizable dye indicator 5-(and-6)-chloromethyl-2′, 7′-dichlorodihydrofluorescein diacetate, acetyl ester (CM—H2DCFDA, abbreviated as “DCF”) (Molecular Probes, Eugene, Oreg.). Upon entering the cell by passive diffusion, the acetate groups are cleaved by intracellular esterases, and the thiol-reactive chloromethyl group binds to intracellular thiols, rendering the CM—H2DCF product trapped within the cell. […] [manufacturer's data] leaves the final fluorescent product CM-DCF, which is then imaged (excitation: 485, emission: 538) and quantitated in the same fashion as TMRM (above) as an indicator of relative levels of ROS in the culture.

rodent cortical cultures = assay: FM1-43 vesicular uptake in cortical neuronal cultures; type: cell-based, rat; conditions: all doses of Tat
Procedure: (C) Moreover, activity dependent FM1-43 release by KC1 depolarization preferentially reduces the punctate vesicular labeling versus background signal. (D) In ≦14 and ≧14 day old primary neurons, 2.5 μg/ml Tat and 4.25 μg/ml Tat induces an increase in spontaneous activity dependent vesicular uptake, an effect that is both dose and culture age dependent.
Cortical neuronal cultures were treated with Tat or cPAF for varying periods of time as an in vitro model of pre-synaptic nerve terminal function, using the lipophilic, fluorescent styryl dye N-(3-triethylammoniumpropyl)-4-(4-(dibutylamino)styryl) pyridinium dibromide (FM1-43), which binds to synaptic vesicle membranes and is taken up into nerve terminals during normal activity (i.e., synaptic vesicle recycling). Fluorescent signal can be quantified to number of neurons, and after chemical depolarization with high concentrations of KC1, fluorescent signal is abolished, giving an index of nerve terminal activity in real-time. […] 68(7): p. 4628-35]. […]
FM1-43 uptake assay: Total spontaneous activity dependent vesicular uptake was assessed using the lipophilic styryl dye N-(3-triethylammoniumpropyl)-4-(4-(dibutylamino)styryl) pyridinium dibromide (FM1-43). […] Upon subsequent exocytosis, the vesicle fuses with the membrane, releasing its contents, and the FM1-43 dissociates back into the extracellular solution and loses its fluorescence. […]

COC(=O)N[C@H](C(=O)N[C@@H](Cc1ccccc1)[C@@H](O)CN(Cc1ccc(-c2ccccn2)cc1)NC(=O)[C@@H](NC(=O)OC)C(C)(C)C)C(C)(C)C [Atazanvir, Atazanavir]
EC50 [1]: 2 to 8 nM

CCNC(=O)[C@H]1O[C@@H](n2cnc3c(N)nc(NCCc4ccc(CCC(=O)O)cc4)nc32)[C@H](O)[C@@H]1O [CGS21680, 4-[2-[[6-Amino-9-(N-ethyl-b-D-ribofuranuronamidosyl)-9H-purin-2yl]amino]ethyl]benzenepropanoic acid hydrochloride]
effect on Tat-induced monocyte activation (TNF release) [2]: abrogated; also recorded: strongly suppressed; also recorded: opposed
inhibition of Tat-induced iNOS expression [3]: roughly 50%
effect on Tat-induced NO secretion [4]: complete abrogation
effect on IL1 mRNA levels [5]: little effect
effect on TNF transcription [5]: strongly suppressed
effect on Tat-induced neuronal apoptosis [6]: did not result in an increase in cell death

OO [H202, hydrogen peroxide]
increase in ROS production (rat cortical neurons): 90%

C[C@H](CCC(=O)NCCS(=O)(=O)O)[C@H]1CC[C@H]2[C@@H]3[C@@H](O)C[C@@H]4C[C@H](O)CC[C@]4(C)[C@H]3CC[C@]12C [TUDCA, tauroursodeoxycholic acid]
effect on Tat-induced increase in FM1-43 uptake (rodent cortical cultures): completely blocked; also recorded: completely eliminated
